Here are results for four compounds from publication PMC6769516, “Apoptotic Effects of Drug Targeting Conjugates Containing Different GnRH Analogs on Colon Carcinoma Cells” (International Journal of Molecular Sciences, 2019).

SMILES strings stand for the structures. Where two headings read alike, the source gives them in different places. Non-standard residues stand in square brackets, D forms with d. Residues, ends and D or L forms follow the SMILES beside them. *: point of attachment. Daunorubicin(13-NOCH2CO) = COc1cccc2c1C(=O)c1c(O)c3c(c(O)c1C2=O)C[C@@](O)(C(C)=NOCC(=O)*)C[C@@H]3O[C@H]1C[C@H](N)[C@H](O)[C@H](C)O1; pGlu = O=C1CC[C@@H](C(=O)O)N1; Butyryl = CCCC(=O)*

In this data set the test system is HT-29 cell line. Nature of the data set: Cell viability assay, impedance-based xCELLigence SP System. Details: species or system human. Particulars: for IC50: Delta CI normalized to control, sigmoidal fit, mean ± SD of three parallel measurements, read-out: IC50 of cytotoxicity; for Viability (control = 100 %): conjugate at 10^-4 M, mean of three parallels ± SD. Here is the method: The effects of different GnRH conjugates on HT-29 cell growth were measured by the xCELLigence SP System (ACEA Biosciences, San Diego, CA, USA), which allows cell viability to be detected in real-time via impedance readouts. The experimental setup and the procedure were almost identical to the one described in more detail in our previous works. The continuous monitoring of cell viability provides the opportunity to determine the difference in the time-dependent cellular response for the various GnRH conjugates and to select the optimal time points to conduct more specific end-point assays (e.g., apoptosis assays) for further investigating the mechanism of antitumor activity. […] CI is a dimensionless value and is calculated from the impedance of the well with cells and the background impedance of the well without cells.
Briefly, the main steps of the experiment are the following: (i) the background measurement, in which 80 µL complete cell culture medium was loaded to each well of an E-plate in order to establish a constant CI value; (ii) the cell monitoring step, in which 100 µL of cell suspension (10^5 cell/mL) was added to each well followed by an incubation period of 24 h; and (iii) the compound activity monitoring step, in which test-conjugates (final concentration range: 32 nM–100 µM) were added to the cells at the plateau phase and the CI change was recorded for a further 72 h at 10 kHz. Stock solutions (5 × 10^−3 M) were prepared from the test-conjugates in distilled water and then further diluted to 320 nM–1 mM in the complete cell culture medium. The wells treated with an adequate volume of pure cell culture medium represented the control. Triplicate wells were used for each treatment for statistical analysis.
Delta CI values—a difference of CI value at the time point of cell inoculation and CI value at a given time point—were calculated by RTCA 2.0 software (ACEA Biosciences, San Diego, CA, USA) integrated into the xCELLigence SP System to characterize the time-dependent antiproliferative/cytotoxic effect of the different GnRH conjugates. IC50 values were used to compare the effect of the conjugates.

As for `CCCC(=O)NCCCC[C@H](NC(=O)[C@H](Cc1c[nH]c2ccccc12)NC(=O)[C@H](Cc1c[nH]cn1)NC(=O)[C@@H]1CCC(=O)N1)C(=O)N[C@@H](Cc1ccc(O)cc1)C(=O)N[C@H](CCCCNC(=O)CON=C(C)[C@]1(O)Cc2c(O)c3c(c(O)c2[C@@H](O[C@H]2C[C@H](N)[C@H](O)[C@H](C)O2)C1)C(=O)c1c(OC)cccc1C3=O)C(=O)N[C@@H](CC(C)C)C(=O)N[C@@H](CCCNC(=N)N)C(=O)N1CCC[C@H]1C(=O)NCC(N)=O` [I-[^4Lys(Bu),^6D-Lys(Dau)], GnRH-I-[^4Lys(Bu),^6D-Lys(Dau=Aoa)]] ([pGlu]HWK(Butyryl)Y[dK](Daunorubicin(13-NOCH2CO))LRPG-NH2), the IC50 is, setting by setting: (24 h incubation) above 100 µM; (48 h incubation) 18.7 ± 1.19 µM; (72 h incubation) 16.2 ± 1.75 µM. In addition, the “Viability (control = 100 %)” value came out at 86.69 ± 4.84% (24 h), 15.50 ± 0.55% (48 h) and 5.31 ± 1.27% (72 h).

For the compound `COc1cccc2c1C(=O)c1c(O)c3c(c(O)c1C2=O)C[C@@](O)(C(C)=NOCC(=O)NCCCC[C@@H](NC(=O)[C@H](Cc1ccc(O)cc1)NC(=O)[C@H](CO)NC(=O)[C@H](Cc1c[nH]c2ccccc12)NC(=O)[C@H](Cc1c[nH]cn1)NC(=O)[C@@H]1CCC(=O)N1)C(=O)N[C@@H](CC(C)C)C(=O)N[C@@H](CCCNC(=N)N)C(=O)N1CCC[C@H]1C(=O)NCC(N)=O)C[C@@H]3O[C@H]1C[C@H](N)[C@H](O)[C@H](C)O1` [I-[^4Ser,^6D-Lys(Dau)], GnRH-I-[^4Ser,^6D-Lys(Dau=Aoa)]], the IC50 is above 100 µM (24 h incubation), 60.2 ± 3.5 µM (48 h incubation) and 21.9 ± 1.54 µM (72 h incubation). Besides, the “Viability (control = 100 %)” value (48 h) stood at 43.82 ± 1.18%.

Regarding `CCCC(=O)NCCCC[C@H](NC(=O)[C@H](Cc1c[nH]c2ccccc12)NC(=O)[C@H](Cc1c[nH]cn1)NC(=O)[C@@H]1CCC(=O)N1)C(=O)N[C@@H](Cc1c[nH]cn1)C(=O)N[C@H](CCCCNC(=O)CON=C(C)[C@]1(O)Cc2c(O)c3c(c(O)c2[C@@H](O[C@H]2C[C@H](N)[C@H](O)[C@H](C)O2)C1)C(=O)c1c(OC)cccc1C3=O)C(=O)N[C@@H](Cc1c[nH]c2ccccc12)C(=O)N[C@@H](Cc1ccc(O)cc1)C(=O)N1CCC[C@H]1C(=O)NCC(N)=O` [II-[^4Lys(Bu),^6D-Lys(Dau)], GnRH-II-[^4Lys(Bu),^6D-Lys(Dau=Aoa)]] ([pGlu]HWK(Butyryl)H[dK](Daunorubicin(13-NOCH2CO))WYPG-NH2), the IC50 reads like this: (24 h incubation) 65.8 ± 3.89 µM; (48 h incubation) 69.7 ± 4.12 µM; (72 h incubation) 48.1 ± 6.89 µM. Moreover, the “Viability (control = 100 %)” value (24 h) amounted to 35.64 ± 3.41%, the “Viability (control = 100 %)” value (48 h) amounted to 19.40 ± 2.77% and the “Viability (control = 100 %)” value (72 h) came out at 24.31 ± 4.20%.

Consider `COc1cccc2c1C(=O)c1c(O)c3c(c(O)c1C2=O)C[C@@](O)(C(C)=NOCC(=O)NCCCC[C@@H](NC(=O)[C@H](Cc1c[nH]cn1)NC(=O)[C@H](CO)NC(=O)[C@H](Cc1c[nH]c2ccccc12)NC(=O)[C@H](Cc1c[nH]cn1)NC(=O)[C@@H]1CCC(=O)N1)C(=O)N[C@@H](Cc1c[nH]c2ccccc12)C(=O)N[C@@H](Cc1ccc(O)cc1)C(=O)N1CCC[C@H]1C(=O)NCC(N)=O)C[C@@H]3O[C@H]1C[C@H](N)[C@H](O)[C@H](C)O1` [II-[^4Ser,^6D-Lys(Dau)], GnRH-II-[^4Ser,^6D-Lys(Dau=Aoa)]] ([pGlu]HWSH[dK](Daunorubicin(13-NOCH2CO))WYPG-NH2), for which the IC50 amounted to 58.9 ± 10 µM (24 h incubation), 24.2 ± 0.86 µM (48 h incubation) and 19.7 ± 2.51 µM (72 h incubation). The “Viability (control = 100 %)” value (48 h) is listed as 16.91 ±1.91% and the “Viability (control = 100 %)” value (72 h) was 20.43 ± 2.66%.
